From patent publication US20220249487A1, “QUINAZOLINYL COMPOUNDS AND METHODS OF USE” (Genentech, Inc., priority 2019, published 2022)
Structures can show the parent of a compound that is named as a salt.

target: T1, IRE1α (Homo sapiens, UniProt O75460, D688N); test: IRE1α TR-FRET competition binding assay (HTRF); conditions: His-tagged IRE1α kinase dead construct (KR, AA G547-L977, D688N); Alexa fluor 647-labeled ATP competitive probe 2 nM; read-out: IRE1α (alpha) HTRF (IC50)
T1 construct: containing the kinase and RNase domains (KR, AA G547-L977, D688N); made in house; host or cells: Sf9 insect cells
Procedure: To determine the affinity of compound binding to the kinase domain of IRE1α, a time-resolved fluorescence resonance energy transfer (TR-FRET) competition assay was used.
A His-tagged IRE1α kinase dead construct containing the kinase and RNase domains (KR, AA G547-L977, D688N) was expressed in Sf9 insect cells. The purified protein (final concentration 0.25 nM) was pre-incubated with anti-His Europium labeled antibody (Life Technologies PV5596, final concentration 2 nM) for one hour at 4° C. in TR-FRET Assay Buffer (50 mM HEPES, pH 7.5, 10 mM MgCl2, 0.083 mM Brij 35, 1 mM DTT, and 0.1% bovine gamma globulin) prior to addition to test compounds. An Alexa fluor 647-labeled probe based on an ATP competitive inhibitor was added to a final concentration of 2 nM. Reactions were carried out for one hour at room temperature in a final volume of 20 μL in 384 well white ProxiPlates (Perkin Elmer 6008289). Binding of the probe to the IRE1α protein was detected in an Envision instrument (PerkinElmer) equipped with a TRF laser option and a LANCE/Delfia Dual/Bias D400/D630 mirror (Ex 347 nm, 1st Em 665 nm, 2nd Em 615 nm).

T1 sequence (O75460 547-977 D688N): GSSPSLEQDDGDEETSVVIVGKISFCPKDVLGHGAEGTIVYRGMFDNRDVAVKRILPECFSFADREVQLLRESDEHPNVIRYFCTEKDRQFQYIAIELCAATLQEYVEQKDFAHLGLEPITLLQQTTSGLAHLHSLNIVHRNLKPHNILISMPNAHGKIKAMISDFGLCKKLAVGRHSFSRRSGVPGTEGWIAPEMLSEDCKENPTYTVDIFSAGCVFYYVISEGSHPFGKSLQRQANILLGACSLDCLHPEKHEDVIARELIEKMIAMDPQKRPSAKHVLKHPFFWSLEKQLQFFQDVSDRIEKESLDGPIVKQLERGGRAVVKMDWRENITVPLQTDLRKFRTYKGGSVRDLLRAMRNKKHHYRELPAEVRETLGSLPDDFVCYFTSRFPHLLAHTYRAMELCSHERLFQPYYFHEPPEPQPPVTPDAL

SMILES	IC50 [nM]
O=S(=O)(Cc1ccccc1)Nc1ccc(-c2ccc3nc(N[C@H]4CCCNC4)ncc3c2)c(F)c1F [Compound 1001, (S)—N-(2,3-Difluoro-4-(2-(piperidin-3-ylamino)quinazolin-6-yl)phenyl)-1-phenylmethanesulfonamide]	0.57
O=S(=O)(Cc1ccccc1)Nc1ccc(F)c(-c2ccc3nc(N[C@H]4CCCNC4)ncc3c2)c1 [Compound 1005, (S)—N-(4-Fluoro-3-(2-(piperidin-3-ylamino)quinazolin-6-yl)phenyl)-1-phenylmethanesulfonamide]	79
O=S(=O)(Cc1ccccc1)Nc1cccc(-c2ccc3nc(N[C@H]4CCCNC4)ncc3c2)c1F [Compound 1006, (S)—N-(2-Fluoro-3-(2-(piperidin-3-ylamino)quinazolin-6-yl)phenyl)-1-phenylmethanesulfonamide]	100
CCC(F)(F)CS(=O)(=O)Nc1ccc(-c2ccc3nc(N[C@H]4CCCNC4)ncc3c2)c(F)c1F [Compound 1007, (S)—N-(2,3-Difluoro-4-(2-(piperidin-3-ylamino)quinazolin-6-yl)phenyl)-2,2-difluorobutane-1-sulfonamide]	2.9
Cc1cc(NS(=O)(=O)Cc2ccccc2)c(F)c(F)c1-c1ccc2nc(N[C@H]3CCCNC3)ncc2c1 [Compound 1009, (S)—N-(2,3-Difluoro-5-methyl-4-(2-(piperidin-3-ylamino)quinazolin-6-yl)phenyl)-1-phenylmethanesulfonamide]	4.9
O=S(=O)(Cc1ccccc1)Nc1ccc(-c2ccc3nc(N[C@H]4CCCNC4)ncc3c2)cc1F [Compound 1010, (S)—N-(2-Fluoro-4-(2-(piperidin-3-ylamino)quinazolin-6-yl)phenyl)-1-phenylmethanesulfonamide]	11
O=S(=O)(Cc1ccccc1)Nc1c(F)cc(-c2ccc3nc(N[C@H]4CCCNC4)ncc3c2)cc1F [Compound 1011, (S)—N-(2,6-Difluoro-4-(2-(piperidin-3-ylamino)quinazolin-6-yl)phenyl)-1-phenylmethanesulfonamide]	0.53
O=S(=O)(Cc1ccccc1)Nc1ccc(-c2ccc3nc(N[C@H]4CCCNC4)ncc3c2F)c(F)c1F [Compound 1012, (S)—N-(2,3-Difluoro-4-(5-fluoro-2-(piperidin-3-ylamino)quinazolin-6-yl)phenyl)-1-phenylmethanesulfonamide]	15
O=S(=O)(Cc1ccccc1)Nc1cc(F)c(-c2ccc3nc(N[C@H]4CCCNC4)ncc3c2)c(F)c1F [Compound 1014, (S)-1-Phenyl-N-(2,3,5-trifluoro-4-(2-(piperidin-3-ylamino)quinazolin-6-yl)phenyl)methanesulfonamide hydrochloride]	2.1
O=S(=O)(Cc1ccccc1)Nc1ccc(-c2cc3cnc(N[C@H]4CCCNC4)nc3cc2F)c(F)c1F [Compound 1015, (S)—N-(2,3-Difluoro-4-(7-fluoro-2-(piperidin-3-ylamino)quinazolin-6-yl)phenyl)-1-phenylmethanesulfonamide]	3.1
CCc1cc(-c2ccc(NS(=O)(=O)Cc3ccccc3)c(F)c2)cc2cnc(N[C@@H]3CNC[C@@H](F)C3)nc12 [Compound 1017, N-(4-(8-Ethyl-2-(((3S,5S)-5-fluoropiperidin-3-yl)amino)quinazolin-6-yl)-2-fluorophenyl)-1-phenylmethanesulfonamide]	0.18
CCc1cc(-c2ccc(NS(=O)(=O)CCC(F)(F)F)c(F)c2)cc2cnc(N[C@H]3CC[C@H](N(C)C)CC3)nc12 [Compound 1018, N-(4-(2-(((1,4-trans)-4-(Dimethylamino)cyclohexyl)amino)-8-ethylquinazolin-6-yl)-2-fluorophenyl)-3,3,3-trifluoropropane-1-sulfonamide]	0.25

Further compounds by falling IC50, results first:

IC50 [nM]	SMILES
150	O=S(=O)(Cc1ccccc1)Nc1ccc(F)c(-c2ccc3nc(N[C@H]4CCCNC4)ncc3c2)c1F [Compound 1004, (S)—N-(2,4-Difluoro-3-(2-(piperidin-3-ylamino)quinazolin-6-yl)phenyl)-1-phenylmethanesulfonamide]
30	O=S(=O)(Cc1ccccc1)Nc1ccc(Cl)c(-c2ccc3nc(N[C@H]4CCCNC4)ncc3c2)c1F [Compound 1008, (S)—N-(4-Chloro-2-fluoro-3-(2-(piperidin-3-ylamino)quinazolin-6-yl)phenyl)-1-phenylmethanesulfonamide]
7.6	O=S(=O)(CCC(F)(F)F)Nc1ccc(-c2ccc3nc(N[C@H]4CCCNC4)ncc3c2)c(F)c1F [Compound 1002, (S)—N-(2,3-Difluoro-4-(2-(piperidin-3-ylamino)quinazolin-6-yl)phenyl)-3,3,3-trifluoropropane-1-sulfonamide]
0.65	O=S(=O)(Cc1ccccc1)Nc1c(F)cc(-c2ccc3nc(N[C@H]4CCCNC4)ncc3c2)c(F)c1F [Compound 1003, (S)-1-Phenyl-N-(2,3,6-trifluoro-4-(2-(piperidin-3-ylamino)quinazolin-6-yl)phenyl)methanesulfonamide]
0.51	O=S(=O)(Cc1ccccc1)Nc1c(F)cc(-c2ccc3nc(N[C@@H]4CNC[C@@H](F)C4)ncc3c2)cc1F [Compound 1013, N-(2,6-Difluoro-4-(2-(((3S,5S)-5-fluoropiperidin-3-yl)amino)quinazolin-6-yl)phenyl)-1-phenylmethanesulfonamide]
0.46	CCc1cc(-c2ccc(NS(=O)(=O)Cc3ccccc3)cc2F)cc2cnc(N[C@@H]3CNC[C@@H](F)C3)nc12 [Compound 1016, N-(4-(8-Ethyl-2-(((3S,5S)-5-fluoropiperidin-3-yl)amino)quinazolin-6-yl)-3-fluorophenyl)-1-phenylmethanesulfonamide Formate]
